# How the values were obtained:
# TRPV1 = TRPV1 (Homo sapiens, UniProt Q8NER1); assay: TRPV1 assay, calcium imaging; format: cell-based
# Description: Briefly, cells are seeded into poly-L-lysine-coated, glass-bottom, 24-well plates (1×10^5 cells/well) and incubated overnight under standard culture conditions to achieve the desired confluency. Culture media is removed and cells washed twice with HBS prior to incubation for 15 to 60 min at 37° C. with a labelling mixture comprised of Fura-2-AM and pluronic acid in HBS. Data collection occurs over an eight minute period and follows the same general sequence. Following loading, cells are stimulated by addition of 1 μM of capsaicin agonist for 2 min, after which a concentration series of the test sample (e.g., (0.5, 5, 10, 50 μg/ml) is added and imaging continued for an additional 5 min. Capsazepine (20 μM) serves as a known reference antagonist, while cells that are mock-treated or receive vehicle (e.g., DMSO) alone serve as negative controls. For imaging, plates are placed on the stage of an inverted epifluorescence microscope (e.g. Axiovert 200, Zeiss) equipped with a CCD digital camera (e.g., Axiocam MRm, Zeiss). For each well of the plate, a sequence of image pairs (excitation at 340 nm and 380 nm) are collected to capture intracellular calcium flux. Image sequences are analyzed in Image) (NIH) and average pixel intensities calculated for six representative cells in each test condition to achieve mean fluorescence.
# [1] = tested on: voltage-gated Na+ channels; assay: Sodium (Na+) channel analysis in rat DRG neurons using whole cell patch-clamp; format: cell-based; details: Na+ currents in isolated rat DRG neurons, 3 min in presence of drug, read-out: IC50 range
# Description: Isolated DRG neurons were suspended in primary neuron basal media and placed on glass coverslips for incubation in humidified atmosphere of 5% CO2 at 37° C. Coverslips carrying cells was transferred to the bath of an inverted microscope (Zeiss), continuously perfused with oxygenated artificial cerebro-spinal fluid (ACSF) containing (in mM) 124 NaCl, 2.5 KCl, 2 CaCl2, 1 MgSO4, 25 NaHCO3, 1 NaH2PO4, and 10 glucose, at a rate of 2-3 ml/min. Recording of whole-cell membrane currents were made at room temperature. Recording pipette (4-6 MS2) was filled with internal solution containing (in mM) 145 K-gluconate, 5 NaCl, 1 MgCl2, 0.2 EGTA, 10 HEPES, 2 Mg-ATP, 0.1 Na-GTP, and 10 phosphocreatine. To isolate Na^+ currents, DRG neurons were superfused with ACSF containing tetraethylammonium chloride (TEA) 5 mM, cesium chloride (CsCl) 100 μM and cadmium chloride (CdCl) 1 mM, to block potassium and calcium currents. NQ compounds were freshly dissolved in ASCF containing TEA, CsCl and CdCl, prior application via the bath.
# For recording Na^+ currents, cells were held at −60 mV before applying a conditioning hyperpolarizing step (50 ms) to −90 mv to reactivate the voltage-gated Na^+ channels. The conditioning pulse was followed by depolarizing (150 ms) test pulses to 50 mV in 10 mV increments. Na^+ currents were recorded in absence, after 3 min in presence of the drugs and after a recovery time of 3 min.
# zebrafish embryos = assay: Zebrafish response (anaesthesia) assay, touch response/swim behaviour; format: in vivo; details: Danio rerio, 1.5 h; complete anaesthesia (scale 1) in 50% of AB wild type embryos (54 hpf), 90 min at 28° C.
# Description: Briefly, the ZEA assay involves applying essential oils, fractions or individual compounds to developmentally staged zebrafish embryos followed by monitoring of embryonic touch response/swim behaviour and evaluation of the dose response relationship for each substance. Using a four point scale to describe the embryonic behaviours (Table 4), initial analysis focused on monitoring and recording these changes and evaluating the level of bioactivity. The effective concentration to generate complete anaesthesia in 50% of the embryos (EC50), were evaluated as follows:
# Compounds are tested on developmentally staged AB “wild type” zebrafish embryos (54 hpf+/−2 hpf) at concentrations ranging between 10 and 400 μM.
# Each compound is diluted in a 95% ethanol or DMSO carrier to create a working stock solution from which appropriate dilutions are made in standard embryo E3 media.
# 1000 μl of each concentration or appropriate carrier control are added to 10 wild type AB embryos in a single well of a 24 well plate, in duplicate.
# The embryos are incubated for 90 min at 28° C. (optimal temperature for embryonic growth) in the diluted compound.
# A four point scale (Table 4) is used to evaluate the touch response and swim behaviour for each embryo in all wells.
# The effectiveness of the compound will be based on its ability to generate complete anaesthesia (scale: 1) in 50% of the embryos at a given concentration (EC50).
# The EC50 values are calculated using GraphPad Prism® software to analyze the log (dose) response curves.
# TRPV1, sequence (Q8NER1 whole entry, species assumed): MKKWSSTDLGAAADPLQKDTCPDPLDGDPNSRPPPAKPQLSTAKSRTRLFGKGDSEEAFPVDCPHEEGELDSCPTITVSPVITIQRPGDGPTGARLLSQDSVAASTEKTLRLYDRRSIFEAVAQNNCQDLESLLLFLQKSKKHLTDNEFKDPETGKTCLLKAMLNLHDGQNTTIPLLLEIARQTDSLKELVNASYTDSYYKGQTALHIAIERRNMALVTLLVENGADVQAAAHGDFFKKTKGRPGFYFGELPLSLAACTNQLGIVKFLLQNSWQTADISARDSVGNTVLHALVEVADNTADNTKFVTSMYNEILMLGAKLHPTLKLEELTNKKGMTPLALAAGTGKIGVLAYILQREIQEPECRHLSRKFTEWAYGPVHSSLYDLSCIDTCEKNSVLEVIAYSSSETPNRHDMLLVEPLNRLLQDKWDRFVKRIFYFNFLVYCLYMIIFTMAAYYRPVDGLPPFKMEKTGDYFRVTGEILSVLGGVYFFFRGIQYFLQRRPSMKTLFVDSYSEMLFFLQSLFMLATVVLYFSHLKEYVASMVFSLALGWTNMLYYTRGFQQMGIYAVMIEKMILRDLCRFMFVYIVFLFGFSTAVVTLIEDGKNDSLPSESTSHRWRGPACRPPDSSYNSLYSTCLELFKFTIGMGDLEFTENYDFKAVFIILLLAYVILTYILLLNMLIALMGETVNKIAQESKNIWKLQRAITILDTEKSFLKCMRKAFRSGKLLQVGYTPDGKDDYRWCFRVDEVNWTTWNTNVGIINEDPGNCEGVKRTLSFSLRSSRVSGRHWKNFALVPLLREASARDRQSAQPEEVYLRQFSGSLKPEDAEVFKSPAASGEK
structure (smiles),measurement,setting,value
"CC(C)=CCC/C(C)=C/C=O [NQ 2983, (E)-3,7-dimethylocta-2,6-dienal]",IC50,TRPV1; Ca2+ imaging (Fura-2-AM) after stimulation with 1 μM capsaicin,493 to 657 µM
same,IC50,"TRPV1; FIG. 2, Ca2+ imaging in HEK-TRPV cells",493 µM
same,IC50,[1],1000 to 5000 µM
same,EC50,zebrafish embryos,113 µM

# — patent US20130267571A1, “TERPENOID ANALOGUES AND USES THEREOF FOR TREATING NEUROLOGICAL CONDITIONS” (NeuroQuest Inc., priority 2010, published 2013)
